In patent US20220283165A1, “Methods of Enhancing Immunogenicity of Cancers” (The Board of Trustees of the Leland Stanford Junior …, priority 2019, published 2022):

Assays:
[1] = tested on: Siglec-7 ligands on primary human T-ALL cells; assay: Siglec-7 ligands on patient T-ALL liquid biopsies treated with MYC inhibitor; assay type: cell-based; conditions: FACS-sorted primary T-ALL cells, 48 hours; two of three patients had Siglec-7-Fc binding
Procedure: (§1) ST6GALNAC4 or pharmacologic MYC inhibition for 48 hours by incubation with 100 μM 10058-F4 (n(control)=8, n(KO)=4, n(inhibitor)=6, two-tailed Mann-Whitney U test). Data presented as mean ±s.d. Panel C: Representative Western blot for ST6GALNAC4 in PEER cells following MYC inhibition with 100 μM 10058-F4 for 48 hours. Data representative of two independent experiments. Panel D: Workflow to collect primary T-ALL from patients, treat with a MYC inhibitor (10058-F4), and quantify Siglec-7 ligands. Panel E: Siglec-7 ligands on patient T-ALL liquid biopsies treated with the indicated concentration of 10058-F4 for 48 hours. Data represent three donors. Panel F: Correlation of ST6GALNAC4 and MYC mRNA (RNA-seq) gene expression across all hematopoietic tumor samples (n=106) in the CCLE with MYC expression>3. Correlation determined by least squares regression. Panel G: Survival Z-score heatmap for each sialyltransferase across each hematopoietic tumor within the PRECOG database. […] Panel H: Siglec-7 ligand display by KARPAS-422 DLBCL cells following treatment with 10058-F4 for 48 hours (n=3 per group, two-tailed Student's t-test). Data presented as mean±s.d. […] Monocyte prevalence was calculated as a fraction of all lymphocytes. […]
Assessed next was whether T-ALL liquid biopsies display Siglec-7 ligands susceptible to MYC regulation. […]

ST6GALNAC4 = assay: Western blot for ST6GALNAC4 in PEER cells after MYC inhibition; assay type: cell-based, human; conditions: 100 μM 10058-F4 for 48 hours
Procedure: as §1, with “mean±s.d. Panel I: Survival stratified by median MYC and ST6GALNAC4 expression in a cohort of DLBCL patients (GSE4475). HR, hazard ratio from Cox Proportional Hazards model.” for “mean±s.d.”

Myc-Max complex = target: T1, Myc-Max complex (Homo sapiens, UniProt P01106); conditions: HL60 cells; cited from earlier work
T1 construct: host or cells: HL60 cells (for 10058-F4 only)
T1 sequence (P01106 whole entry, one chain of several): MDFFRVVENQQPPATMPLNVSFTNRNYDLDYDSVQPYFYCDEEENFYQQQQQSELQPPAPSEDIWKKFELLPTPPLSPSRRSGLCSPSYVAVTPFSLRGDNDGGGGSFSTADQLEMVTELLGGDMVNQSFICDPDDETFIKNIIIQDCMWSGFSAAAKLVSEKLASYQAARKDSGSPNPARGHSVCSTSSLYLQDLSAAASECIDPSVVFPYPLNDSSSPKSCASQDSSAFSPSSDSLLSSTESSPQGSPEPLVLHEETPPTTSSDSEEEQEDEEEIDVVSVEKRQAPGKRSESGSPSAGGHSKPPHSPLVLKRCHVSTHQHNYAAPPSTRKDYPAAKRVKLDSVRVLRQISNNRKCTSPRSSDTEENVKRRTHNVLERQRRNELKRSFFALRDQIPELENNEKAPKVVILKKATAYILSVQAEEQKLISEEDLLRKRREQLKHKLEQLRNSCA

[2] = tested on: Siglec-7 ligands on PEER cells; assay: Siglec-7 ligand display (Siglec-7-Fc staining, flow cytometry) on PEER cells after MYC or CDK7/9 inhibition; assay type: cell-based, human; conditions: 48 hours, 10058-F4 at 100 μM
Procedure: as §1, with “mean±s.d. Panel I: Survival stratified by median MYC and ST6GALNAC4 expression in a cohort of DLBCL patients (GSE4475). HR, hazard ratio from Cox Proportional Hazards model.” for “mean±s.d.”

[3] = tested on: Siglec-7 ligands on KARPAS-422 DLBCL cells; assay: Siglec-7 ligand display by KARPAS-422 DLBCL cells after MYC inhibition; assay type: cell-based, human; conditions: 48 hours
Procedure: as §1, with “mean±s.d. Panel I: Survival stratified by median MYC and ST6GALNAC4 expression in a cohort of DLBCL patients (GSE4475). HR, hazard ratio from Cox Proportional Hazards model.” for “mean±s.d.”

[4] = tested on: hematopoietic cancers and pancreatic ductal adenocarcinoma (PDAC) exhibiting C-MYC overexpression; conditions: in vitro and in vivo; cited from earlier work
Myc-AURKA complex = Myc-AURKA complex (Homo sapiens, UniProt O14965); conditions: MYCN-amplified neuroblastomas; cited from earlier work
Myc-AURKA complex, sequence (O14965 whole entry, one chain of several): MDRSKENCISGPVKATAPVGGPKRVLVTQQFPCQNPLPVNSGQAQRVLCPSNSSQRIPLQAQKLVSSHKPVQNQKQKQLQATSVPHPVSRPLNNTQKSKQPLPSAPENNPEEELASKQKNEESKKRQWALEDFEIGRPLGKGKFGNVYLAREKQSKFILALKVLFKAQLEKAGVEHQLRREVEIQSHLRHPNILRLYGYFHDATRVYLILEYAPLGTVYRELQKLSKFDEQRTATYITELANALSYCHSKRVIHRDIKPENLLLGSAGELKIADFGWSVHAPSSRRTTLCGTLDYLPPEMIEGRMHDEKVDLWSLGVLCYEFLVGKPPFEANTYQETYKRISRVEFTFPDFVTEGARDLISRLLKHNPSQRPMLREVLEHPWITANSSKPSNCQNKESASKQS

c-Myc = conditions: P53-mutant human hepatocellular carcinoma cells; cited from earlier work
[5] = tested on: MYCN-amplified neuroblastoma; conditions: xenograft model; cited from earlier work
[6] = tested on: MYC-overexpressing T-cell acute lymphoblastic leukemia, mixed-lineage leukemia, neuroblastomas, small cell lung cancers; conditions: cited from earlier work

CCc1ccc(/C=C2/SC(=S)NC2=O)cc1 [10058-F4]
Siglec-7 ligand display [1]: reduced Siglec-7 ligand display | ST6GALNAC4 protein expression (ST6GALNAC4): diminished ST6GALNAC4 protein expression | disruption of the Myc-Max complex (Myc-Max complex): capable of disrupting the Myc-Max complex | Siglec-7-Fc binding (Siglec-7 ligands) [2]: reduced Siglec-7-Fc binding | reduction in Siglec-7 ligand abundance [3]: 70%

Cc1sc2c(c1C)C(c1ccc(Cl)cc1)=N[C@@H](CC(=O)OC(C)(C)C)c1nnc(C)n1-2 [JQ1]
anti-cancer effects [4]: potent anti-cancer effects both in vitro and in vivo

O=C(O)c1ccc(Nc2ncc3c(n2)-c2ccc(Cl)cc2C(c2c(F)cccc2F)=NC3)cc1 [MLN8054]
N-Myc degradation and tumor regression (Myc-AURKA complex): N-Myc degradation and tumor regression

COc1cc(Nc2ncc3c(n2)-c2ccc(Cl)cc2C(c2c(F)cccc2OC)=NC3)ccc1C(=O)O [MLN8237]
N-Myc degradation and tumor regression (Myc-AURKA complex): N-Myc degradation and tumor regression | c-Myc degradation (c-Myc): induced c-Myc degradation

CC(=O)c1cc([N+](=O)[O-])c(Sc2ccc(F)cc2F)s1 [P22077]
growth of MYCN-amplified neuroblastoma [5]: markedly suppressed growth

CN(C)C/C=C/C(=O)Nc1ccc(C(=O)Nc2cccc(Nc3ncc(Cl)c(-c4c[nH]c5ccccc45)n3)c2)cc1 [THZ1]
ST6GALNAC4 protein expression (ST6GALNAC4): diminished ST6GALNAC4 protein expression | Siglec-7-Fc binding (Siglec-7 ligands) [2]: reduced Siglec-7-Fc binding | anti-tumor effects [6]: potent anti-tumor effects
